# According to patent US6423701B1, “Water soluble amine esters of testosterone for intranasal administration” (University of Kentucky, priority 1996, dated 2002):
# Assay: Nasal absorption of TSDG in rats: plasma levels after intranasal and intravenous administration, HPLC
# Format: in vivo
# Conditions: male, Sprague-Dawley, rat
# Experimental: Male Sprague-Dawley rats weighing 250-275 gm were used. Animals were fasted overnight before the experiment, but water was given ad libitum. All surgical procedures were performed under sodium pentobarbital anesthesia (40 mg/kg i.p.). An incision was made in the neck, and the trachea was cannulated with a polyethylene tube. A closed tube was inserted through the esophagus to the posterior part of the nasal cavity. The nasopalatine passage was closed with an adhesive agent to prevent drainage of the drug from the nasal cavity to the mouth.
# Blood samples were collected from a cannula inserted into the femoral artery. For intravenous administration, the jugular vein was cannulated for administering the dose.
# For intravenous administration, the same dose of the drug was injected through the jugular vein.
# Blood samples were collected at 0, 5, 10, 20, 30, 40, 60, 90, 120, 150, and 180 minutes. After immediate centrifugation (3000×g for 3 min), the plasma was separated. The animal was sacrificed after the last sample was obtained, and the samples were then analyzed by HPLC, using the method of Hsyu et al. (Pharm. Res. 11:156-159, 1994). Briefly, plasma concentrations of testosterone free base were determined via a HPLC protocol which included solid-phase extraction, separation on a reverse-phase cyano column, and UV detection at 305 nm.
smiles,measurement,setting,value
"C[C@]12CC[C@H]3[C@@H](CCC4=CC(=O)CC[C@@]43C)[C@@H]1CC[C@@H]2O [TS, 17β-hydroxyandrost-4-en-3-one]",AUC,"inhaled or intranasal, intranasal, dose 25 mg/kg",1830 ng·h/mL
same,AUC,"inhaled or intranasal, intranasal, dose 50 mg/kg",3490 ng·h/mL
same,AUC,"intravenous, dose 25 mg/kg",1770 ng·h/mL
same,AUC,"intravenous, dose 50 mg/kg",3780 ng·h/mL
